Data reported in article PMC3847553, “Kinetic properties of “dual” orexin receptor antagonists at OX1R and OX2R orexin receptors” (Frontiers in Neuroscience, 2013).
Blank lines part the entries; values can stand above or below the compound they belong to.

Legend:
[1] = biological target: T1, human OX1R (Homo sapiens, UniProt O43613); test: [3H]-BBAC competition binding over time, CHO-hOX1 membranes
T1 construct: expressed in transfected cells; host or cells: CHO; cells from GNF, San Diego
T1 sequence (O43613 1-425): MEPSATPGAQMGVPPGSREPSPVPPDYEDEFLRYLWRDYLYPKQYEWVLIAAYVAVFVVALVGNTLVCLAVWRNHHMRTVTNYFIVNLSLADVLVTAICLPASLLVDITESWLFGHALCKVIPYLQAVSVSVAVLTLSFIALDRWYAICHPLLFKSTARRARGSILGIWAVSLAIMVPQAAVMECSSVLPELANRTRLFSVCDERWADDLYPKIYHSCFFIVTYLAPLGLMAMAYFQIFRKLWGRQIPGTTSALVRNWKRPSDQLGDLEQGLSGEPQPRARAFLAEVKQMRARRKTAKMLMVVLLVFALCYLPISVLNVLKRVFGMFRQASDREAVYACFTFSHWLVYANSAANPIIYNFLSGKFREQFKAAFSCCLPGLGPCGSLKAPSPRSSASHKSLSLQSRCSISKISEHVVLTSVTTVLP
From the text: (§1) Chinese Hamster Ovary (CHO) cells stably transfected with the cDNA encoding the human OX1R (CHO-hOX1) or OX2R (CHO-hOX2) were used (kindly provided by T. Cremer and Dr. S. Geisse, NIBR Basel, Switzerland). For measurements of calcium accumulation using FLIPR® (Fluorescent Imaging Plate Reader) assay, CHO or Human Embryonic Kidney (HEK) cells stably expressing mouse, rat or human OX1R or OX2R (kindly provided by Dr. A. Chen, GNF, San Diego, CA, USA) were used. […] Cells were maintained in a humidified incubator at 37°C in 5% CO2. For crude cell membrane preparations, cells were washed and harvested in 10 mM HEPES (pH 7.5), and centrifuged at 4°C for 5 min at 2500 g. The cell pellet was either stored at −80°C or used directly.
(§2) Cell membranes were resuspended in binding assay buffer at 4°C (10 mM HEPES, pH 7.5, 0.5% (w/v) bovine serum albumin (BSA), 5 mM MgCl2, 1 mM CaCl2, and 0.05% Tween 20) and homogenized with a Polytron homogenizer at 50 Hz for 20 s. […] Radioactivity was quantified using a TopCount™ microplate counter (Perkin Elmer).
(§3) All data was analyzed using GraphPad Prism 4.0 (GraphPad, San Diego, USA). The saturation data was fit to a non-linear regression model for saturation binding with consideration for one site binding. […] Competition binding data was fit to a non-linear regression model for competition binding with consideration for variable one site binding with a non-fixed Hill slope.

[2] = system: OX1R; test: FLIPR calcium assay, OX1R, species not given; format: cell-based; settings: species not stated
Protocol: (§4) Determination of orexin A-stimulated calcium accumulation was performed over 2 days using FLIPR® (Fluorescent imaging plate reader from Molecular Devices-FLIPR384). Cells expressing either human, rat or mouse OX1R or OX2R were seeded at 8,000 cells/well in black 384 well clear bottom plates and incubated overnight at 37°C. The following day, medium was discarded and cells loaded with 50 μ l of 1 mM Fluo-4 AM (Invitrogen F14202) in dimethyl sulfoxide in working buffer (Hanks' balanced salt solution, 10 mM HEPES) and incubated for 60 min at 37°C. The loading buffer was removed and cells were washed with 100 μ l working buffer containing […], 0.1% BSA, and 2.5 mM Probenecid (pH 7.4) to remove the excess Fluo-4 AM. Working buffer was added and plates were incubated 10–15 min at room temperature. The assay plate was then transferred to the Molecular Devices-FLIPR384. The baseline calcium signal was recorded for 10 s, then the antagonist of interest was injected (10 μl at 3 times the final concentration) and the calcium signal recorded every second for 1 min, then every 2 s 40 times. Plates were then incubated at room temperature for 30 min, 1, 2, or 4 h.

[3] = biological target: T2, human OX2R (Homo sapiens, UniProt O43614); test: [3H]-BBAC competition binding over time, CHO-hOX2 membranes
T2 construct: expressed in transfected cells; host or cells: CHO; cells from GNF, San Diego
T2 sequence (O43614 1-444): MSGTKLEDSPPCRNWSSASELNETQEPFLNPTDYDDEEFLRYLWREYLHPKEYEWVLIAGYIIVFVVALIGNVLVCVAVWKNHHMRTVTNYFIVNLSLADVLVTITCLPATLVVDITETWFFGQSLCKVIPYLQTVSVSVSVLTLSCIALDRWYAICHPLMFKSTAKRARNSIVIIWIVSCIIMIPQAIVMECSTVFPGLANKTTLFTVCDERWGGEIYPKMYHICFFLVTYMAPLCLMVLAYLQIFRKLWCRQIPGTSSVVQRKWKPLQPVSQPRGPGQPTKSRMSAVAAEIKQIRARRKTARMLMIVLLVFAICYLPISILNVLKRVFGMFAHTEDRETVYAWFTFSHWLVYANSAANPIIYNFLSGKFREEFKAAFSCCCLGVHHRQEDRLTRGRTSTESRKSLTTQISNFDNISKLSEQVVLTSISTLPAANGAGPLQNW
From the text: as §1, §2, §3

[4] = system: OX2R; test: FLIPR calcium assay, OX2R, species not given; format: cell-based; settings: species not stated
Protocol: as §4

[5] = system: sleep; parameters: method as in Fox et al., 2013; settings: rodent studies; ref Fox et al., 2013; cited from earlier work
[6] = biological target: T1, human OX1R; test: [3H]-BBAC saturation binding, CHO-hOX1 membranes
From the text: as §1, §2
(§5) Data in the figures is representative of the mean ± s.e.m. of a single experiment.
(§6) All data was analyzed using GraphPad Prism 4.0 (GraphPad, San Diego, USA). The saturation data was fit to a non-linear regression model for saturation binding with consideration for one site binding. […]

[7] = biological target: T2, human OX2R; test: [3H]-BBAC saturation binding, CHO-hOX2 membranes
From the text: as §1, §2, §5, §6

[8] = system: OX1R; parameters: method as in Sakurai et al., 1998; settings: competition radioligand binding, ref Sakurai et al., 1998; cited from earlier work

time to reach equilibrium ([1]; competition for [3H]-BBAC, OX1R): 15 to 30 min
time to reach equilibrium ([3]; competition for [3H]-BBAC, OX2R): 15 to 30 min
Compound: Cn1c(SCC(=O)N2CCC[C@H]2C(=O)Nc2ccccc2-c2ccccc2)nc2ccccc21 [BBAC, (S)-N-([1,1′-biphenyl]-2-yl)-1-(2-((1-methyl-1H-benzo[d]imidazol-2-yl)thio)acetyl)pyrrolidine-2-carboxamide]
effect of incubation time on competition curves ([1]; competition for 4.6 nM [3H]-BBAC, 15 min to 4 h, human OX1R): no significant difference in IC50 values measured between 30 min and 4 h
effect of incubation time on potency in calcium assay [2]: constant potency values irrespective of the incubation time
effect of incubation time on competition curves ([3]; competition for 4.6 nM [3H]-BBAC, 15 min to 4 h, human OX2R): no significant difference in IC50 values measured between 30 min and 4 h
effect of incubation time on potency in calcium assay [4]: constant potency values irrespective of the incubation time

Compound: C[C@@H]1CC[C@@H](COc2ccc(F)cn2)CN1C(=O)c1cc(F)ccc1-c1ncccn1 [DORA-22]
effect on sleep [5]: promotes sleep with dose-dependent increases in REM sleep

incubation time sufficient to reach Bmax and KD values comparable to 4 h [6]: 15 to 30 min
Kd ([7]; CHO-hOX2 membranes, room temperature): ~1 nM
incubation time sufficient to reach Bmax and KD values comparable to 4 h ([7]; OX2R): 15 to 30 min
Compound: Cn1c(SCC(=O)N2CCC[C@H]2C(=O)Nc2ccccc2-c2ccccc2)nc2ccccc21 [[^3H]-BBAC, (S)-N-([1,1′-biphenyl]-2-yl)-1-(2-((1-methyl-1H-benzo[d]imidazol-2-yl)thio)acetyl)pyrrolidine-2-carboxamide]

Compound: orexin B: endogenous orexin peptide
affinity [8]: 250 nM
